This note sets out measurements from patent publication US12649750B2, “Macrocyclic compounds, compositions, and methods of using thereof” (Sionna Therapeutics Inc., priority 2022, dated 2026).

Where two headings read alike, the source gives them in different places.

One data set addresses T1, NBD1 (Homo sapiens, UniProt P13569).
T1 construct: Purified recombinant NBD1 was produced using previously described methods; made in house
Put plainly: Aggregation analysis using differential static light scattering (DSLS), thermal stability of NBD1 (ΔTagg). Format: binding. As to conditions: ΔTagg versus DMSO control, NBD1 0.2 mg/ml. The procedure, abridged:
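NBD1 0.2 mg/ml, S200 buffer (50 mM Tris-HCl, 150 mM NaCl, 5 mM MgCl2, 2 mM ATP, 2 mM DTT, pH7.6) + 1% glycerol; cpd in DMSO; oil overlay. Ramp 25→70° C. at 1° C./min, DSLS images every 0.5° C. ΔTagg = Tagg (inflection) − mean DMSO Tagg.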

For another data set, the target named is T2, CFTR (Homo sapiens, UniProt P13569, DEL508-508).
T2 construct: Primary human bronchial epithelial cells from a ΔF508 homozygous CF donor; host or cells: primary human bronchial epithelial cells (CF-HBE), ΔF508 homozygous donor
T2 sequence (P13569 with tags, fused parts or gaps DEL508-508): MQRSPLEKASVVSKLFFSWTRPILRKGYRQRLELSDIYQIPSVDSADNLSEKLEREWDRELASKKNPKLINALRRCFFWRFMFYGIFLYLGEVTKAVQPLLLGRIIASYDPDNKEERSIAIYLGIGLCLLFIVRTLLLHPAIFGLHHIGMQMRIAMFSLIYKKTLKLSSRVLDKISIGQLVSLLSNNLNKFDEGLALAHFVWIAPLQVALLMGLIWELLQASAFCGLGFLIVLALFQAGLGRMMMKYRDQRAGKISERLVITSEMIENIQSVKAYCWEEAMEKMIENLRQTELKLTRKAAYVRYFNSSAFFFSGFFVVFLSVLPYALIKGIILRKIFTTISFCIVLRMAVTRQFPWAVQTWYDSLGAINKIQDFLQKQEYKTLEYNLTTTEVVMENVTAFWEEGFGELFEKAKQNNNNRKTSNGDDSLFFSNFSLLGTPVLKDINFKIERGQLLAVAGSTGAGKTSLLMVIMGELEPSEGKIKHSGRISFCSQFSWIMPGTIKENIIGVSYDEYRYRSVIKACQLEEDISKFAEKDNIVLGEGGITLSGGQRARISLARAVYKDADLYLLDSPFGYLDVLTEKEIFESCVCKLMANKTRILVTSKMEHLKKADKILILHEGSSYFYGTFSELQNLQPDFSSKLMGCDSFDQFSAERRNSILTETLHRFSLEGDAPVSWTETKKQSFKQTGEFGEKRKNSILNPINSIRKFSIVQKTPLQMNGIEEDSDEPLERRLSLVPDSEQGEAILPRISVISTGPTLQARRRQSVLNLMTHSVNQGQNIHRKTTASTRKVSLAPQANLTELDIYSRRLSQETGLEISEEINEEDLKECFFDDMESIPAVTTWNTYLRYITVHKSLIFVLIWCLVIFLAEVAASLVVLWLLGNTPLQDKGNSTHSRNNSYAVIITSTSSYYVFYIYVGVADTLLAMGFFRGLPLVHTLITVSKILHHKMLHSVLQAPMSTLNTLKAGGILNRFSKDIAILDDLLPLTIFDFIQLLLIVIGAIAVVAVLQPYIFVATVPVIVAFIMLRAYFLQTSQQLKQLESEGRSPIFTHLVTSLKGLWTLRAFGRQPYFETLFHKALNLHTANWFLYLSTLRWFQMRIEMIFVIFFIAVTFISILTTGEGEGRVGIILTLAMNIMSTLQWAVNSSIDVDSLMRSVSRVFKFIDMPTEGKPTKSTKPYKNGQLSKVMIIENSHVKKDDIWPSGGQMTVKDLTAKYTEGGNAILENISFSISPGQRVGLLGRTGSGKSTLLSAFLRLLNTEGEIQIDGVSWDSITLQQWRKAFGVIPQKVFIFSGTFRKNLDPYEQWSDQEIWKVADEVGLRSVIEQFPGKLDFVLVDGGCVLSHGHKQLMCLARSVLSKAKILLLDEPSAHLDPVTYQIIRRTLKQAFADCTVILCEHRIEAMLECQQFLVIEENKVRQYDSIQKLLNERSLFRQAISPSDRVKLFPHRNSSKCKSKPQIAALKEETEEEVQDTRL
Put plainly: TECC24 AUC fold over DMSO @10 μM, CFTR-mediated transepithelial chloride transport in CF-HBE cells. Format: cell-based. As to conditions: test agent AUC divided by DMSO vehicle AUC, primary CF-HBE cells, ΔF508 homozygous donor, 48 hours incubation. An outline of the steps: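 ΔF508-homozygous primary bronchial epithelial cells incubated 48 h at 36.5° C with compound (10 μM) in IL-13-containing medium, then TECC24 current-clamp recording in pH 7.4 Hepes saline with benzamil 10 μM, forskolin 10 μM, then CFTR inhibitor-172 20 μM. Equivalent Cl− current AUC between forskolin and inhibitor, expressed as fold over DMSO.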

T1 sequence (P13569 423-646 limits assumed): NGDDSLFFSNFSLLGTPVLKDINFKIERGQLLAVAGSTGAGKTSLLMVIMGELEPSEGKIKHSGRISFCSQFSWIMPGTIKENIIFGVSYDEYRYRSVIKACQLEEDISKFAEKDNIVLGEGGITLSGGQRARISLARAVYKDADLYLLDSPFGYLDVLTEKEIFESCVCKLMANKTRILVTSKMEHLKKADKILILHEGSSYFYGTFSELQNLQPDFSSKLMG

Turning to `C=CS(=O)(=O)CC(C)(C)CCC[C@](C)(c1cccc(C[C@H](C)C(=O)OC)c1)c1nc(-c2cc(Oc3cc4cc[nH]c4c(F)c3F)ccc2F)n(C)n1`, where the note is “the molecule shown is the open-chain precursor, cc_pd bond, 20-membered ring, Pd(OAc)2/Cu(OAc)2, DMF/DMSO 9:1, 1.36 mM, 70.0 °C”, the ring closure, isolated yield turned out to be 20%.

With `CCOC(=O)CCc1cccc(C2CCCC(C)(C)CSCCc3c(c(F)cc4[nH]ccc34)Oc3ccc(F)c(c3)-c3nn2cc3C#N)c1` (stereo not drawn), the ring closure, isolated yield (from CCOC(=O)CCc1cccc(C(O)CCCC(C)(C)CSCCc2c(Oc3ccc(F)c(-c4n[nH]cc4C#N)c3)c(F)cc3[nH]ccc23)c1, other bond, 18-membered ring, cyanomethylenetributylphosphorane, 1,4-dioxane, 40.9 mM, 150.0 °C, 0.67 h) stood at 46%.

The compound `COC(=O)/C1=C\c2c(c(F)cc3[nH]ccc23)Oc2cccc(c2)-c2ccn(n2)C(c2cccc(Br)c2)CCCC(C)(C)CS1(=O)=O` (stereo not drawn) had a ring closure, isolated yield (from COC(=O)CS(=O)(=O)CC(C)(C)CCCC(c1cccc(Br)c1)n1ccc(-c2cccc(Oc3c(F)cc4[nH]ccc4c3C=O)c2)n1, other bond, 18-membered ring, piperidine/rest truncated, toluene, 3.5 mM, 100.0 °C) of 43%.

For `COC(=O)[C@@H](C)Cc1cccc([C@@]2(C)CCCC(C)(C)CS(=O)(=O)/C=C/c3c(c(F)c(F)c4[nH]ccc34)Sc3ccc(F)c(c3)-c3nc2nn3C)c1`, the ring closure, isolated yield (from C=CS(=O)(=O)CC(C)(C)CCC[C@](C)(c1cccc(C[C@H](C)C(=O)OC)c1)c1nc(-c2cc(Sc3c(F)c(F)c4[nH]ccc4c3Br)ccc2F)n(C)n1, cc_pd bond, 18-membered ring, Pd(PtBu3)2/Et3N, toluene, 9.7 mM, 120.0 °C, 4.0 h) was found to be 80%.

In turn, `COC(=O)[C@@H](C)Cc1cccc([C@@]2(C)CCCC(C)(C)CS(=O)(=O)/C=C/c3c(c(F)cc4[nH]ccc34)Sc3ccc(F)c(c3)-c3nc2nn3C)c1` yielded a ring closure, isolated yield (from C=CS(=O)(=O)CC(C)(C)CCC[C@](C)(c1cccc(C[C@H](C)C(=O)OC)c1)c1nc(-c2cc(Sc3c(F)cc4[nH]ccc4c3Br)ccc2F)n(C)n1, cc_pd bond, 18-membered ring, Pd(PtBu3)2/Et3N, toluene, 25.9 mM, 120.0 °C, 2.5 h) of 69%.

For the compound `COC(=O)[C@H](C)Cc1cccc(C2(C)CCCC(C)(C)CS(=O)(=O)/C=C/c3c(c(F)cc4c3ccn4S(=O)(=O)c3ccc(C)cc3)Oc3ccc(F)c(c3)-c3ccn2n3)c1` (stereo partly drawn), where the note is “cc_pd bond, 18-membered ring, Pd(PtBu3)2/Et3N, toluene, 0.65 mM, 100.0 °C”, the ring closure, isolated yield worked out at 11%.

In the case of `COC(=O)[C@H](C)Cc1cccc(C2(C)CCCC(C)(C)CS(=O)(=O)C=Cc3c(c(F)cc4[nH]ccc34)Oc3ccc(F)c(c3)-c3nc2nn3C)c1` (stereo partly drawn), the ring closure, isolated yield (from C=CS(=O)(=O)CC(C)(C)CCCC(C)(c1cccc(C[C@@H](C)C(=O)OC)c1)c1nc(-c2cc(Oc3c(F)cc4[nH]ccc4c3Br)ccc2F)n(C)n1, cc_pd bond, 18-membered ring, Pd(PtBu3)2/second reagent truncated, toluene, 8.15 mM, 2.0 h) was 48%.

Consider `COC(=O)[C@H](C)Cc1cccc([C@@]2(C)CCCC(C)(C)CS(=O)(=O)/C=C/c3c(c(F)c(F)c4[nH]ccc34)Oc3ccc(F)c(c3)-c3nc2nn3C)c1`, for which, where the note is “from C=CS(=O)(=O)CC(C)(C)CCC[C@](C)(c1cccc(C[C@@H](C)C(=O)OC)c1)c1nc(-c2cc(Oc3c(F)c(F)c4[nH]ccc4c3Br)ccc2F)n(C)n1, cc_pd bond, 18-membered ring, Pd(PtBu3)2/Et3N, toluene, 10.8 mM, 120.0 °C, 3.5 h”, the ring closure, isolated yield came out at 68%.

`COC(=O)[C@H](C)Cc1cccc([C@@]2(C)CCCC(C)(C)CS(=O)(=O)/C=C/c3c(c(F)c(F)c4[nH]ccc34)Sc3ccnc(c3)-c3nc2nn3C)c1`: where the note is “cc_pd bond, 18-membered ring, Pd(PtBu3)2/Et3N, toluene, 21.3 mM, 120.0 °C”, the ring closure, isolated yield came to 56%.

Take `COC(=O)[C@H](C)Cc1cccc([C@@]2(C)CCCC(C)(C)CS(=O)(=O)C=Cc3c(c(F)cc4[nH]ccc34)Oc3ccnc(c3)-c3nc2nn3C)c1`: the ring closure, isolated yield (from C=CS(=O)(=O)CC(C)(C)CCC[C@](C)(c1cccc(C[C@@H](C)C(=O)OC)c1)c1nc(-c2cc(Oc3c(F)cc4[nH]ccc4c3Br)ccn2)n(C)n1, cc_pd bond, 18-membered ring, Pd(PtBu3)2/Et3N, toluene, 2.74 mM, 120.0 °C, 4.0 h) turned out to be 64%.

For the setting “from Cn1nc(C(OCCCCS(C)(=O)=O)c2cccc(CCCO)c2)nc1-c1cc(Oc2c(F)cc3c(ccn3COCc3ccccc3)c2C=O)ccc1F, other bond, 18-membered ring, NaH, DMF, 19.4 mM”, `Cn1nc2nc1-c1cc(ccc1F)Oc1c(F)cc3c(ccn3COCc3ccccc3)c1/C=C/S(=O)(=O)CCCCOC2c1cccc(CCCO)c1` (stereo not drawn) registered a ring closure, isolated yield of 26%.

Turning to `Cn1nc2nc1-c1cc(ccc1F)Oc1c(F)cc3c(ccn3S(=O)(=O)c3ccccc3)c1Cn1cc(cn1)C(C)(C)CSCCC2(C)c1cccc(Br)c1` (stereo not drawn), the ring closure, isolated yield (from Cn1nc(C(C)(CCSCC(C)(C)c2cn[nH]c2)c2cccc(Br)c2)nc1-c1cc(Oc2c(F)cc3c(ccn3S(=O)(=O)c3ccccc3)c2CO)ccc1F, other bond, 19-membered ring, cyanomethylenetributylphosphorane, toluene, 14.0 mM, 110.0 °C, 4.0 h) turned out to be 37%.

The compound `O=Cc1c(Oc2ccc(F)c(-c3ncc(C(CCCCCCS(=O)(=O)CC(=O)O)c4cccc(I)c4)[nH]3)c2)c(F)cc2[nH]ccc12` (stereo not drawn) had a ring closure, isolated yield (the molecule shown is the open-chain precursor, other bond, 19-membered ring, piperidine/AcOH, toluene, 2.7 mM, 100.0 °C) of 10%.

For the setting “from [2H]C([2H])([2H])n1nc(C(C)(CCCC(C)(C)CS(=O)(=O)CC(=O)OCC)c2cccc(OCC(=O)OCC)c2)nc1-c1cc(Oc2c(F)cc3[nH]ccc3c2C=O)ccc1F, other bond, 18-membered ring, piperidine/AcOH, toluene, 2.6 mM, 110.0 °C”, `[2H]C([2H])([2H])n1nc2nc1-c1cc(ccc1F)Oc1c(F)cc3[nH]ccc3c1C=C(C(=O)OCC)S(=O)(=O)CCCCCC2(C)c1cccc(OCC(=O)OCC)c1` (stereo not drawn) came in with a ring closure, isolated yield of 52%.

For `C[C@@H](Cc1cccc([C@@]2(C)CCCC(C)(C)CS(=O)(=O)CCc3c(c(F)cc4[nH]ccc34)Sc3cccc(c3)-c3nc2co3)c1)C(=O)O` [Compound 293, (2S)-3-[3-[(6R)-22-fluoro-6,10,10-trimethyl-12,12-dioxo-3-oxa-12λ6,24-dithia-19,30-diazapentacyclo[23.3.1.12,5.015,23.016,20]triaconta-1(29),2(30),4,15,17,20,22,25,27-nonaen-6-yl]phenyl]-2-methyl-propanoic Acid], on NBD1, the “DSLS 3D (100 μM ΔT)” value was “C (a value greater than 10 °C and less than or equal to 25 °C is marked “C”)”. For the same compound, the “TECC (AUC, 10 μM)” value on CFTR is “B (a value between 12-20 is marked “B”)”.

In the case of `C[C@@H](Cc1cccc([C@@]2(C)CCCC(C)(C)CS(=O)(=O)CCc3c(c(F)cc4[nH]ccc34)[S+]([O-])c3cccc(c3)-c3nc2co3)c1)C(=O)O` (stereo partly drawn) [Compound 294, (2S)-3-[3-[(6R)-22-fluoro-6,10,10-trimethyl-12,12,24-trioxo-3-oxa-12λ6,24λ4-dithia-19,30-diazapentacyclo[23.3.1.12,5.015,23.016,20]triaconta-1(29),2(30),4,15,17,20,22,25,27-nonaen-6-yl]phenyl]-2-methyl-propanoic Acid], the “DSLS 3D (100 μM ΔT)” value at NBD1 was “C (a value greater than 10 °C and less than or equal to 25 °C is marked “C”)”. Moreover, the “TECC (AUC, 10 μM)” value at CFTR was “A (a TECC value less than 12 is marked “A”)”.

Consider `Cn1nc2nc1-c1cc(ccc1F)Oc1c(F)cc3[nH]ccc3c1CCS(=O)(=O)CCCCOC2c1cccc(CCCO)c1` (stereo not drawn) [Compound 296, 3-[3-(22,28-Difluoro-3-methyl-12,12-dioxo-7,24-dioxa-12lambda6-thia-3,4,19,30-tetrazapentacyclo[23.3.1.^12,5.0^15,23.0^16,20]triaconta-1(29),2(30),4,15(23),16(20),17,21,25,27-nonaen-6-yl)phenyl]propan-1-ol], for which the “DSLS 3D (100 μM ΔT)” value at NBD1 was “A (an ΔTagg value less than or equal to 5 °C is marked “A”)”. In addition, the “TECC (AUC, 10 μM)” value at CFTR is listed as “A (a TECC value less than 12 is marked “A”)”.

For `Cn1nc2nc1-c1cc(ccc1F)Oc1c(F)cc3[nH]ccc3c1CCS(=O)(=O)CCCCOC2c1cccc(CCC(=O)O)c1` (stereo not drawn) [Compound 297, 3-[3-(22,28-Difluoro-3-methyl-12,12-dioxo-7,24-dioxa-12λ6-thia-3,4,19,30-tetrazapentacyclo[23.3.1.12,5.015,23.016,20]triaconta-1(29),2(30),4,15(23),16(20),17,21,25,27-nonaen-6-yl)phenyl]propanoic Acid], the “DSLS 3D (100 μM ΔT)” value on NBD1 is “B (a value above 5 °C and less than or equal to 10 °C is marked “B”)”. Moreover, the “TECC (AUC, 10 μM)” value on CFTR is “A (a TECC value less than 12 is marked “A”)”.

The compound “Diastereomer 1 of methyl 3-methoxy-2-(3-((R,1^4Z,5E)-2^6,4^6,4^7-trifluoro-1^1,9,9,13-tetramethyl-4^1-(methylsulfonyl)-7,7-dioxido-1^1H,4^1H-3,7-dithia-4(5,4)-indola-1(5,3)-triazola-2(1,3)-benzenacyclotridecaphan-5-en-13-yl)benzyl)propanoate” showed a ring closure, isolated yield (cc_pd bond, 18-membered ring, chloro[(tBu3P)(2-aminobiphenyl-2-yl)Pd(II)]/tBu3P-HBF4/Cy2NMe, toluene, 16.8 mM, 120.0 °C) of 68%.

For the setting “cc_pd bond, 17-membered ring, Pd(PtBu3)2/Et3N, toluene, 0.65 mM, 100.0 °C”, “methyl (2R)-3-[3-[(14E)-23,29-difluoro-7,11,11-trimethyl-13,13-dioxo-20-(p-tolylsulfonyl)-25-oxa-13 6-thia-5,6,20-triazapentacyclo[24.3.1.02,6.016,24.017,21]triaconta-1(30),2,4,14,16,18,21,23,26,28-decaen-7-yl]phenyl]-2-methyl-propanoate” displayed a ring closure, isolated yield of 23%.
